US20230322846A9, “NEUROACTIVE STEROIDS AND THEIR METHODS OF USE” (SAGE THERAPEUTICS, INC., priority 2018, published 2023)

The molecules below were run against [35S]-TBPS binding, rat brain cortical membranes (assay: Steroid inhibition of [35S]-TBPS binding). Conditions: 3 nM [35S]-TBPS, in the presence of 5 mM GABA.
In short: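 In the presence of […], compounds (DMSO 0.5% final) competed with 3 nM [35S]-TBPS for Sprague-Dawley rat cortical membranes, pH 7.4 phosphate buffer, 90 min, room temperature. Filtration and scintillation counting; specific binding defined by […]; IC50 and maximal inhibition fitted per experiment, averaged as mean ± SEM.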

Row | Compound | IC50 [nM]
1 | COC[C@@]1(O)CC[C@H]2[C@H](CC[C@@H]3[C@@H]2CC[C@]2(C)[C@@H](CCn4nnc(C)n4)CC[C@@H]32)C1 [Example 47, (3R,5R,8R,9R,10S,13R,14S,17R)-3-(methoxymethyl)-13-methyl-17-(2-(5-methyl-2H-tetrazol-2-yl)ethyl)hexadecahydro-1H-cyclopenta[a]phenanthren-3-ol] | < 100
2 | COC[C@@]1(O)CC[C@H]2[C@H](CC[C@@H]3[C@@H]2CC[C@]2(C)[C@@H](CCn4nnnc4C)CC[C@@H]32)C1 [Example 48, (3R,5R,8R,9R,10S,13R,14S,17R)-3-(methoxymethyl)-13-methyl-17-(2-(5-methyl-1H-tetrazol-1-yl)ethyl)hexadecahydro-1H-cyclopenta[a]phenanthren-3-ol] | < 100
3 | COC[C@@]1(O)CC[C@H]2[C@H](CC[C@@H]3[C@@H]2CC[C@]2(C)[C@@H](CCn4nccn4)CC[C@@H]32)C1 [Example 49, (3R,5R,8R,9R,10S,13R,14S,17R)-17-(2-(2H-1,2,3-triazol-2-yl)ethyl)-3-(methoxymethyl)-13-methylhexadecahydro-1H-cyclopenta[a]phenanthren-3-ol] | < 100
4 | COC[C@@]1(O)CC[C@H]2[C@H](CC[C@@H]3[C@@H]2CC[C@]2(C)[C@@H](CCn4ccnn4)CC[C@@H]32)C1 [Example 50, (3R,5R,8R,9R,10S,13R,14S,17R)-17-(2-(1H-1,2,3-triazol-1-yl)ethyl)-3-(methoxymethyl)-13-methylhexadecahydro-1H-cyclopenta[a]phenanthren-3-ol] | < 100
5 | C[C@@H](Cn1cc(C#N)cn1)[C@H]1CC[C@H]2[C@@H]3CC[C@@H]4C[C@](C)(O)CC[C@@H]4[C@H]3CC[C@]12C [Example 51, 1-((R)-2-((3R,5R,8R,9R,10S,13S,14S,17R)-3-hydroxy-3,13-dimethylhexadecahydro-1H-cyclopenta[a]phenanthren-17-yl)propyl)-1H-pyrazole-4-carbonitrile] | < 100
6 | C[C@H](Cn1cc(C#N)cn1)[C@H]1CC[C@H]2[C@@H]3CC[C@@H]4C[C@](C)(O)CC[C@@H]4[C@H]3CC[C@]12C [Example 52, 1-((S)-2-((3R,5R,8R,9R,10S,13S,14S,17R)-3-hydroxy-3,13-dimethylhexadecahydro-1H-cyclopenta[a]phenanthren-17-yl)propyl)-1H-pyrazole-4-carbonitrile] | < 100
7 | COC[C@@]1(O)CC[C@H]2[C@@H](CC[C@@H]3[C@@H]2CC[C@]2(C)[C@@H]([C@H](C)Cn4nnc(C)n4)CC[C@@H]32)C1 [Example 54, (3R,5S,8R,9R,10S,13S,14S,17R)-3-(methoxymethyl)-13-methyl-17-((S)-1-(5-methyl-2H-tetrazol-2-yl)propan-2-yl)hexadecahydro-1H-cyclopenta[a]phenanthren-3-ol] | 100 to 1000
8 | COC[C@@]1(O)CC[C@H]2[C@@H](CC[C@@H]3[C@@H]2CC[C@]2(C)[C@@H]([C@@H](C)Cn4nnnc4C)CC[C@@H]32)C1 [Example 55, (3R,5S,8R,9R,10S,13S,14S,17R)-3-(methoxymethyl)-13-methyl-17-((R)-1-(5-methyl-1H-tetrazol-1-yl)propan-2-yl)hexadecahydro-1H-cyclopenta[a]phenanthren-3-ol] | < 100
9 | COC[C@@]1(O)CC[C@H]2[C@@H](CC[C@@H]3[C@@H]2CC[C@]2(C)[C@@H]([C@H](C)Cn4nnnc4C)CC[C@@H]32)C1 [Example 56, (3R,5S,8R,9R,10S,13S,14S,17R)-3-(methoxymethyl)-13-methyl-17-((S)-1-(5-methyl-1H-tetrazol-1-yl)propan-2-yl)hexadecahydro-1H-cyclopenta[a]phenanthren-3-ol] | 100 to 1000
10 | C[C@@H](Cn1nccn1)[C@H]1CC[C@H]2[C@@H]3CC[C@H]4C[C@](C)(O)CC[C@@H]4[C@H]3CC[C@]12C [Example 57, (3R,5S,8R,9R,10S,13S,14S,17R)-17-((R)-1-(2H-1,2,3-triazol-2-yl)propan-2-yl)-3,13-dimethylhexadecahydro-1H-cyclopenta[a]phenanthren-3-ol] | 100 to 1000
11 | C[C@H](Cn1nccn1)[C@H]1CC[C@H]2[C@@H]3CC[C@H]4C[C@](C)(O)CC[C@@H]4[C@H]3CC[C@]12C [Example 58, (3R,5S,8R,9R,10S,13S,14S,17R)-17-((S)-1-(2H-1,2,3-triazol-2-yl)propan-2-yl)-3,13-dimethylhexadecahydro-1H-cyclopenta[a]phenanthren-3-ol] | 1000 to 10000
12 | C[C@@H](Cn1ccnn1)[C@H]1CC[C@H]2[C@@H]3CC[C@H]4C[C@](C)(O)CC[C@@H]4[C@H]3CC[C@]12C [Example 59, (3R,5S,8R,9R,10S,13S,14S,17R)-17-((R)-1-(1H-1,2,3-triazol-1-yl)propan-2-yl)-3,13-dimethylhexadecahydro-1H-cyclopenta[a]phenanthren-3-ol] | 100 to 1000
13 | C[C@H](Cn1ccnn1)[C@H]1CC[C@H]2[C@@H]3CC[C@H]4C[C@](C)(O)CC[C@@H]4[C@H]3CC[C@]12C [Example 60, (3R,5S,8R,9R,10S,13S,14S,17R)-17-((S)-1-(1H-1,2,3-triazol-1-yl)propan-2-yl)-3,13-dimethylhexadecahydro-1H-cyclopenta[a]phenanthren-3-ol] | 100 to 1000
14 | CC[C@@]1(O)CC[C@@]2(C)[C@H](CC[C@@H]3[C@@H]2CC[C@]2(C)[C@@H]([C@H](C)Cn4ccc(C#N)n4)CC[C@@H]32)C1 [Example 62, 1-((S)-2-((3R,5R,8R,9S,10S,13S,14S,17R)-3-ethyl-3-hydroxy-10,13-dimethylhexadecahydro-1H-cyclopenta[a]phenanthren-17-yl)propyl)-1H-pyrazole-3-carbonitrile] | < 100
15 | CC[C@@]1(O)CC[C@@]2(C)[C@H](CC[C@@H]3[C@@H]2CC[C@]2(C)[C@@H]([C@@H](C)Cn4nccc4C#N)CC[C@@H]32)C1 [Example 63, 1-((R)-2-((3R,5R,8R,9S,10S,13S,14S,17R)-3-ethyl-3-hydroxy-10,13-dimethylhexadecahydro-1H-cyclopenta[a]phenanthren-17-yl)propyl)-1H-pyrazole-5-carbonitrile] | < 100
16 | CC[C@@]1(O)CC[C@@]2(C)[C@H](CC[C@@H]3[C@@H]2CC[C@]2(C)[C@@H]([C@H](C)Cn4nccc4C#N)CC[C@@H]32)C1 [Example 64, 1-((S)-2-((3R,5R,8R,9S,10S,13S,14S,17R)-3-ethyl-3-hydroxy-10,13-dimethylhexadecahydro-1H-cyclopenta[a]phenanthren-17-yl)propyl)-1H-pyrazole-5-carbonitrile] | < 100
17 | CCC[C@@]1(O)CC[C@H]2[C@H](CC[C@@H]3[C@@H]2CC[C@]2(C)[C@@H]([C@H](C)Cn4cc(C#N)cn4)CC[C@@H]32)C1 [Example 66, 1-((S)-2-((3R,5R,8R,9R,10S,13S,14S,17R)-3-hydroxy-13-methyl-3-propylhexadecahydro-1H-cyclopenta[a]phenanthren-17-yl)propyl)-1H-pyrazole-4-carbonitrile] | < 100
18 | CCOC[C@@]1(O)CC[C@H]2[C@H](CC[C@@H]3[C@@H]2CC[C@]2(C)[C@@H]([C@@H](C)NS(=O)(=O)c4ccc(C#N)cc4)CC[C@@H]32)C1 [Example 67, 4-cyano-N—((R)-1-((3R,5R,8R,9R,10S,13S,14S,17S)-3-(ethoxymethyl)-3-hydroxy-13-methylhexadecahydro-1H-cyclopenta[a]phenanthren-17-yl)ethyl)benzenesulfonamide] | < 100
19 | CCOC[C@@]1(O)CC[C@H]2[C@H](CC[C@@H]3[C@@H]2CC[C@]2(C)[C@@H]([C@@H](C)N(C)S(=O)(=O)c4ccc(C#N)cc4)CC[C@@H]32)C1 [Example 68, 4-cyano-N—((R)-1-((3R,5R,8R,9R,10S,13S,14S,17S)-3-(ethoxymethyl)-3-hydroxy-13-methylhexadecahydro-1H-cyclopenta[a]phenanthren-17-yl)ethyl)-N-methylbenzenesulfonamide] | < 100
20 | CCOC[C@@]1(O)CC[C@H]2[C@H](CC[C@@H]3[C@@H]2CC[C@]2(C)[C@@H]([C@@H](C)NS(=O)(=O)c4cccc(C#N)c4)CC[C@@H]32)C1 [Example 69] | < 100
21 | CCOC[C@@]1(O)CC[C@H]2[C@H](CC[C@@H]3[C@@H]2CC[C@]2(C)[C@@H]([C@@H](C)N(C)S(=O)(=O)c4cccc(C#N)c4)CC[C@@H]32)C1 [Example 70] | < 100
22 | CCOC[C@@]1(O)CC[C@H]2[C@H](CC[C@@H]3[C@@H]2CC[C@]2(C)[C@@H]([C@@H](C)NS(=O)(=O)c4cccc(C#N)n4)CC[C@@H]32)C1 [Example 71] | 100 to 1000
23 | CCOC[C@@]1(O)CC[C@H]2[C@H](CC[C@@H]3[C@@H]2CC[C@]2(C)[C@@H]([C@@H](C)NS(=O)(=O)c4ccc(C#N)cn4)CC[C@@H]32)C1 [Example 73] | < 100
24 | COC[C@@]1(O)CC[C@H]2[C@H](CC[C@@H]3[C@@H]2CC[C@]2(C)[C@@H]([C@@H](C)NS(=O)(=O)c4cccc(C#N)n4)CC[C@@H]32)C1 [Example 75] | < 100
25 | C[C@@]1(O)CC[C@H]2[C@H](CC[C@@H]3[C@@H]2CC[C@]2(C)[C@@H](CC(=O)Nc4ccccc4)CC[C@@H]32)C1 [Example 76, 2-((3R,5R,8R,9R,10S,13R,14S,17R)-3-hydroxy-3,13-dimethylhexadecahydro-1H-cyclopenta[a]phenanthren-17-yl)-N-phenylacetamide] | 100 to 1000
